In US20200017495A1, “NOVEL HETEROCYCLIC COMPOUNDS AND THEIR USE IN PREVENTING OR TREATING BACTERIAL INFECTIONS” (priority 2017, published 2020):
Like-named read-outs stand apart in the source and are kept apart here.

How the values were obtained:
Assay in all cases: MIC of compounds alone and combined with antibacterials, broth microdilution (CLSI)
Format in all cases: cell-based
[1] = system: Citrobacter koseri (CKR) isolates; conditions: Citrobacter koseri
Summary of the method: (§1)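 First, log-phase suspensions are brought to 5.10^5 CFU/mL final in ca-MHB; plates then incubate 16-20 h at 35° C in air. Growth is judged visually, giving the compound MIC alone and the antibacterial MIC at each compound concentration.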

[2] = system: Enterobacter aerogenes (EAE) isolates; conditions: Klebsiella aerogenes
Summary of the method: as §1

[3] = system: Enterobacter cloacae (ECL) isolates; conditions: Enterobacter cloacae
Summary of the method: as §1

[4] = system: Escherichia coli (ECO) isolates; conditions: Escherichia coli
Summary of the method: as §1

[5] = system: Morganella morganii (MMO) isolates; conditions: Morganella morganii
Summary of the method: as §1

With `C=CC1=C(C(=O)O)N2C(=O)[C@@H](NC(=O)/C(=N\O)c3csc(N)n3)[C@H]2SC1` [CDR, Cefdinir] the MIC [1] was > 256 µg/mL, the MIC [2] was > 256 µg/mL and the MIC ([2]; strain EAE 49469, genotype AmpC, read-out: MIC) was > 128 µg/mL. The MIC ([2]; strain EAE UFR202, genotype TEM-24, read-out: MIC) was 256 µg/mL, the MIC ([2]; strain EAE UFR213, genotype TEM-24, read-out: MIC) was 256 µg/mL and the MIC ([3]; strain ECL 2185D, genotype OXA-163) was > 256 µg/mL. For the same compound, the MIC ([3]; strain ECL 190310, genotype AmpC) was > 256 µg/mL, the MIC ([3]; strain ECL 190408, genotype TEM-1, CTX-M-15, OXA-1) was > 256 µg/mL and the MIC ([3]; strain ECL 200138, genotype AmpC) was > 256 µg/mL. For the same compound, the MIC ([3]; strain ECL 200322, genotype TEM-1, CTX-M-15, OXA-1) was > 256 µg/mL, the MIC ([3]; strain ECL 260033, genotype AmpC) was > 256 µg/mL and the MIC ([3]; strain ECL 260253, genotype TEM-1, KPC-3) was > 256 µg/mL. The MIC ([3]; strain ECL 260323, genotype AmpC, read-out: MIC) was 256 µg/mL, the MIC ([3]; strain ECL 260508, genotype TEM-1, CTX-M-15) was > 256 µg/mL and the MIC ([3]; strain ECL NEM146383, genotype AmpC) was > 256 µg/mL. For the same compound, the MIC ([3]; strain ECL P99, genotype AmpC) was > 256 µg/mL, the MIC ([3]; strain ECL UFR12, genotype CTX-M-9, OXA-48) was > 256 µg/mL and the MIC ([3]; strain ECL UFR13, genotype TEM-1, SHV-12, CTX-M-9, OXA-48) was > 256 µg/mL. For the same compound, the MIC ([3]; strain ECL UFR14, genotype TEM-1, SHV-12, CTX-M-15, DHA-1, OXA-1, OXA-48) was > 256 µg/mL, the MIC ([3]; strain ECL UFR60, genotype TEM-1, CTX-M-15, KPC-2) was > 256 µg/mL and the MIC ([3]; strain ECL UFR70, genotype TEM-1, CTX-M-15, CMY-2, OXA-1, Porin loss) was > 256 µg/mL. The MIC ([3]; strain ECL UFR84, genotype TEM-1, AmpC, OXA-1) was > 256 µg/mL, the MIC ([3]; strain ECL UFR85, genotype TEM-1, CTX-M-15, AmpC) was > 256 µg/mL and the MIC ([3]; strain ECL UFR194, genotype OXA-48) was > 256 µg/mL. The MIC ([3]; strain ECL UFR195, genotype TEM-1, CTX-M-15, OXA-1, OXA-48) was > 256 µg/mL, the MIC ([3]; strain ECL UFR196, genotype TEM-1, CTX-M-15, OXA-1, OXA-48) was > 256 µg/mL and the MIC ([3]; strain ECL UFR197, genotype TEM-1, CTX-M-15, OXA-1, OXA-48) was > 256 µg/mL. For the same compound, the MIC ([3]; strain ECL UFR198, genotype TEM-1, SHV-12, CTX-M-15, DHA-1, OXA-1, OXA-48) was > 256 µg/mL, the MIC ([3]; strain ECL UFR200, genotype TEM-1, SHV-12, KPC-2) was > 256 µg/mL and the MIC ([4]; strain ECO 4133, genotype TEM-30, OXA-1, read-out: MIC) was 0.5 µg/mL. For the same compound, the MIC ([4]; strain ECO 5302, genotype TEM-1, OXA-1, read-out: MIC) was 1 µg/mL, the MIC ([4]; strain ECO 131119, genotype TEM-1, OXA-48, read-out: MIC) was 256 µg/mL and the MIC ([4]; strain ECO 180070, genotype TEM-1, CTX-M-15) was > 256 µg/mL. The MIC ([4]; strain ECO 190314, genotype CTX-M-1) was > 256 µg/mL, the MIC ([4]; strain ECO 190317, genotype TEM-1, SHV-12, CTX-M-15, OXA-1) was > 256 µg/mL and the MIC ([4]; strain ECO 190457, genotype CTX-M-15, OXA-1) was > 256 µg/mL. For the same compound, the MIC ([4]; strain ECO 190549, genotype CTX-M-1, read-out: MIC) was 256 µg/mL, the MIC ([4]; strain ECO 200159, genotype TEM-1, CTX-M-14, read-out: MIC) was 256 µg/mL and the MIC ([4]; strain ECO 200259, genotype CTX-M-14, read-out: MIC) was 256 µg/mL. For the same compound, the MIC ([4]; strain ECO 200344, genotype CTX-M-1) was > 256 µg/mL, the MIC ([4]; strain ECO 260096, genotype CTX-M-132) was > 256 µg/mL and the MIC ([4]; strain ECO 260304, genotype CTX-M-15, read-out: MIC) was 256 µg/mL. For the same compound, the MIC ([4]; strain ECO 260508, genotype TEM-1, CTX-M-15, OXA-1) was > 256 µg/mL, the MIC ([4]; strain ECO RGN238, genotype OXA-1, read-out: MIC) was 0.5 µg/mL and the MIC ([4]; strain ECO UFR15, genotype TEM-1, OXA-48) was > 256 µg/mL. The MIC ([4]; strain ECO UFR16, genotype TEM-1, CTX-M-15, OXA-1, OXA-48) was > 256 µg/mL, the MIC ([4]; strain ECO UFR17, genotype TEM-1, CTX-M-15, CMY-2, OXA-1, OXA-181) was > 256 µg/mL and the MIC ([4]; strain ECO UFR18, genotype CTX-M-15, OXA-204) was > 256 µg/mL. The MIC ([4]; strain ECO UFR19, genotype CTX-M-15, CMY-2, OXA-1, OXA-204) was > 256 µg/mL, the MIC ([4]; strain ECO UFR20, genotype SHV-1, CTX-M-15, OXA-1, OXA-232) was > 256 µg/mL and the MIC ([4]; strain ECO UFR61O, genotype TEM-1, KPC-2) was > 256 µg/mL. For the same compound, the MIC ([4]; strain ECO UFR62, genotype TEM-1, CTX-M-9, KPC-2) was > 256 µg/mL, the MIC ([4]; strain ECO UFR74, genotype SHV-1, DHA-1) was > 256 µg/mL and the MIC ([4]; strain ECO UFR86, genotype ompC-, ompF-, read-out: MIC) was 2 µg/mL. For the same compound, the MIC ([4]; strain ECO UFR174, genotype TEM-1, KPC-2, OXA-1) was > 256 µg/mL, the MIC ([4]; strain ECO UFR175, genotype TEM-1, KPC-2, OXA-9) was > 256 µg/mL and the MIC ([4]; strain ECO UFR176, genotype KPC-3, OXA-9*) was > 256 µg/mL. The MIC ([4]; strain ECO UFR184, genotype CTX-M-15, CMY-4, OXA-1, OXA-204) was > 256 µg/mL, the MIC ([4]; strain ECO UFR185, genotype OXA-48) was > 256 µg/mL and the MIC ([4]; strain ECO UFR186, genotype TEM-1, CTX-M-14, OXA-48) was > 256 µg/mL. The MIC ([4]; strain ECO UFR187, genotype CTX-M-15, OXA-48) was > 256 µg/mL, the MIC ([4]; strain ECO UFR189, genotype TEM-1, CTX-M-15, OXA-48) was > 256 µg/mL and the MIC ([4]; strain ECO UFR190, genotype CTX-M-24, OXA-48) was > 256 µg/mL. For the same compound, the MIC ([4]; strain ECO UFR191, genotype TEM-1, CTX-M-24, OXA-48) was > 256 µg/mL, the MIC ([4]; strain ECO UFR207, genotype CTX-M-15) was > 256 µg/mL and the MIC ([4]; strain ECO UFR208, genotype SHV-12) was > 256 µg/mL. For the same compound, the MIC ([4]; strain ECO UFR209, genotype TEM-1, CTX-M-15) was > 256 µg/mL, the MIC ([4]; strain ECO UFR210, genotype SHV-12) was > 256 µg/mL and the MIC ([4]; strain ECO UFR211, genotype TEM-24, read-out: MIC) was 32 µg/mL. The MIC ([4]; strain ECO UFR212, genotype CMY-2) was > 256 µg/mL, the MIC ([4]; strain ECO UFR218, genotype TEM-1, SHV-1, CTX-M-15) was > 256 µg/mL and the MIC [5] was > 256 µg/mL. For the same compound, the MIC ([5]; strain MMO 200321, genotype TEM-1, CTX-M-15, OXA-1, read-out: MIC) was 256 µg/mL, the MIC ([5]; strain MMO UFR144, genotype TEM-1, CTX-M-15, read-out: MIC) was 128 µg/mL and the MIC ([5]; strain MMO UFR240, genotype CTX-M-9, read-out: MIC) was 64 µg/mL. For the same compound, the MIC ([5]; strain MMO UFR241, genotype TEM-1, CTX-M-15, read-out: MIC) was 128 µg/mL, the MIC ([5]; strain MMO UFR243, genotype DHA-1, read-out: MIC) was 64 µg/mL and the MIC ([5]; strain MMO UFR244, genotype DHA-1, read-out: MIC) was 32 µg/mL. It also gave an MIC ([5]; strain MMO UFR245, genotype DHA-1, read-out: MIC) of 64 µg/mL, an MIC ([5]; strain MMO UFR246, genotype DHA-1, read-out: MIC) of 64 µg/mL and an MIC ([5]; strain MMO UFR247, genotype DHA-1, read-out: MIC) of 128 µg/mL.
